Reference: patent US7659251B2, “Ligand for G-protein coupled receptor FPRL2” (priority 2004, dated 2010)

Experiments:
[1] = system: ERK1/2 MAP-kinases; assay: ERK1/2 activation by Western blotting in FPRL2-expressing CHO-K1 cells; assay type: cell-based, human
Description: (§1) The cAMP concentrations were determined using a homogeneous time-resolved fluorescence (HTRF) kit (Cis Bio International). Briefly, cells were detached, resuspended in Krebs Ringer Hepes buffer containing 1 mM 3-Isobutyl-1-methylxanthine, and submitted to 10 μM forskolin, alone or together with increasing concentrations of agonists for 30 min at room temperature. The reaction was stopped by the successive addition of cAMP-XL665 and anti-cAMP cryptate diluted in lysis buffer. The plates were incubated for 60 min at room temperature and read on a Rubystar fluorimeter (BMG). […] A calibration curve was obtained by plotting delta F % versus cAMP concentrations. ERK1/2 activation was assayed by Western blotting, using an anti-phospho-p42/44 monoclonal antibody (E10, Cell Signaling Technology) as described (46). The aequorin-based assay was performed with or without overnight pretreatment with 100 ng/ml Pertussis toxin. […] For FPRL2 polymorphism analysis, HEK cells were transiently transfected with empty and wild-type or Asp338H is FPRL2-containing pcdna vector using calcium phosphate method. Cells were recovered 48 hours later and used for FACS or cAMP experiments.

[2] = molecular target: T1, FPRL1 (Homo sapiens, UniProt P25090); assay: Competition binding on FPRL1-expressing CHO-K1 cells, tracer [125I]-WKYMVm; settings: up to concentrations of 3 μM
T1 construct: expressed in transfected cells; host or cells: CHO-K1 (with or without Galpha16 and apoaequorin)
T1 sequence (P25090 1-351): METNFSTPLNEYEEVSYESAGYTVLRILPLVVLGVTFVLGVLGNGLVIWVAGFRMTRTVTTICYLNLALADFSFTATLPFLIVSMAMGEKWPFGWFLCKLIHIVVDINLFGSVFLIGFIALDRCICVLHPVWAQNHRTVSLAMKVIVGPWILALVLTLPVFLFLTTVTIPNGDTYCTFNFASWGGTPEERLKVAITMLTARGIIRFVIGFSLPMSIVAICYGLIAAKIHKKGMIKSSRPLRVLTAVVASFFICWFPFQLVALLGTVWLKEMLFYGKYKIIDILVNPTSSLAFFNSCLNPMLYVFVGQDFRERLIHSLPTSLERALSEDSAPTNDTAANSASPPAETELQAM
Description: FPRL2, FPRL1 and FPR-expressing CHO-K1 cells were plated in 24 wells plates (200,000 cells per well for FPRL2, and 100,000 cells per well for the two other receptors). The next day, the cells were washed twice with a KRH buffer containing 280 mM saccharose and, for FPRL1 and FPR, 0.1 % NaN3. […] Cells were washed twice with ice cold buffer, total radioactivity was recovered with 1 M […] and counted in a gamma counter for […]

[3] = molecular target: T2, FPRL2 (Homo sapiens, UniProt P25089); assay: Aequorine assay on human FPRL2 expressing cells (Example 9); assay type: cell-based; parameters: expressed in transfected cells; host or cells: CHO-K1 (with or without Galpha16 and apoaequorin); settings: peptides 2.5 μM to 0.4 nM, Mab 500 ug/ml to 5 ug/ml; FIG. 15
T2 sequence (P25089 1-353): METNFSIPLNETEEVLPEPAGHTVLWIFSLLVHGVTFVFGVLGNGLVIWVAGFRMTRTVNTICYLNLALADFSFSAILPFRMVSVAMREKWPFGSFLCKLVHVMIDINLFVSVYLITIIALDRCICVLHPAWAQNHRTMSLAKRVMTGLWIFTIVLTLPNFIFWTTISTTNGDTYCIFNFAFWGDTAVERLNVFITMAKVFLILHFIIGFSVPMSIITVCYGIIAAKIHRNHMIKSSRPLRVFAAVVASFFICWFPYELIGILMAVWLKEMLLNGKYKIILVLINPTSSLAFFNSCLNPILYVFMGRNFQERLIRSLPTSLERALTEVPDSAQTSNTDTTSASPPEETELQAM
Description: Functional responses were analyzed by recording the luminescence of aequorine in human FPRL2 and FPRL1 expressing cells following the addition of agonists or purified monoclonal antibodies.
In brief, cells were collected from plates with PBS containing 5 mM EDTA, pelleted, resuspend at 5×10^6 cells/ml in DMEM/F-12 medium containing 0.1% bovine serum albumin, incubated with 5 μM coelenterazine H (molecular probes, Inc. Eugene, Oreg.) for 4 h at room temperature and diluted in DMEM/F-12 medium at a concentration of 5×10^5 cells/ml. Cells where then mixed in an 96 wells plate with the ligands or purified monoclonal antibodies. The light emission was recorded over 60 sec using a microlumat Luminometer (EG&G Berthold, microplate luminometer LB 96V).
Each data point is in duplicate. […] Human FPRL1 expressing cells were used as negative control to Mab. Functionality of these cells has been control with Humanin.

[4] = molecular target: T2, FPRL2; assay: cAMP accumulation assay (HTRF, forskolin) on FPRL2-expressing CHO-K1 cells; assay type: cell-based; parameters: expressed in transfected cells; host or cells: CHO-K1; settings: CHO-K1 cells expressing FPRL2 but not G alpha 16; without forskolin
Description: as §1, with “Briefly, cells were detached, resuspended in Krebs Ringer Hepes buffer containing 1 mM 3-Isobutyl-1-methylxanthine, and submitted to 10 μM forskolin, alone or together with increasing concentrations of agonists for 30 min at room temperature.” left out, “ERK1/2 activation was assayed by Western blotting, using an anti-phospho-p42/44 monoclonal antibody (E10, Cell Signaling Technology) as described (46).” left out

[5] = molecular target: T2, FPRL2; assay: Cell surface FPRL2 on DCs by FACS after culture with F2L; assay type: cell-based; parameters: expressed in transfected cells; host or cells: CHO-K1; settings: 1 μM F2L for 48 hours; not shown
Description: Antibodies were generated by injecting BALB/c mice with 100 μg pcDNA3-FPRL2 as described (45). Sera were tested by FACS on the CH0-K1-FPRL2 cell line, and immune mice were used to generate monoclonal antibodies by standard hybridoma technology, using the NSO myeloma cell line. The Ig class of selected hybridomas was determined with a mouse mAb isotyping kit (IsoStrip, Boehringer Mannheim). The antibodies were tested using flow cytometry, performed using anti-FPRL2 antibodies or control IgG2a at 1 μg/ml (for CHO-K1 cells) or 5 μg/ml (for primary cells) in PBS containing 0.1% BSA, 0.1% sodium azide, and FITC-conjugated γ-chain-specific goat anti-mouse IgG (Sigma) as secondary antibody. Fluorescence of 10,000 cells was assayed using a FACScan flow cytofluorimeter (Beckton Dickinson). Intracytoplasmic staining was realised using Cytoperm/Cytowash (Becton Dickinson) according to manufacturer's instructions.

SMILES: CC[C@H](C)[C@H](NC(=O)[C@H](CCSC)NC(=O)CNC(=O)[C@H](CC(C)C)NC(=O)[C@H](CCSC)NC(C)=O)C(=O)N[C@@H](CCCCN)C(=O)N[C@@H](CC(N)=O)C(=O)N[C@@H](CO)C(=O)N[C@@H](CC(C)C)C(=O)N[C@@H](Cc1ccccc1)C(=O)NCC(=O)N[C@@H](CO)C(=O)N[C@H](C(=O)N[C@@H](CCC(=O)O)C(=O)N[C@H](C(=O)N[C@@H](Cc1c[nH]c2ccccc12)C(=O)N1CCC[C@H]1C(=O)N[C@@H](Cc1c[nH]c2ccccc12)C(=O)N[C@@H](CCC(N)=O)C(=O)N[C@H](C(=O)N[C@@H](CC(C)C)C(=O)O)C(C)C)[C@@H](C)O)C(C)C [F2L]
- time of maximal ERK1/2 phosphorylation ([1]; 100 nM F2L, FIG. 11J): 15 min
- concentrations inducing phosphorylation of the ERK1/2 MAP-kinases ([1]; stimulation for 10 min, FIG. 11I): picomolar concentrations
- competition for FPRL1 binding [2]: no competition
- activation of human FPRL2 expressing cells [3]: activates
- stimulation of cAMP production by itself [4]: unable to stimulate cAMP production
- cell surface FPRL2 on DCs [5]: down regulation
